In patent publication US20230286919A1, “ISOQUINOLINE DERIVATIVES FOR USE IN THERAPY” (Vestlandets Innovasjonsselskap AS, priority 2020, published 2023):
pIC50, pKi: −log10 of the molar value. Read-outs that look alike come from different tables or passages of the source.

Key:
ERBB4 (HER4) = ERBB4 (HER4) (Homo sapiens, UniProt Q15303); experiment: SelectScreen kinase profiling, ERBB4; format: biochemical; conditions: read-out: Enzyme inhibitory activity IC50
JAK3 = JAK3 (Homo sapiens, UniProt P52333); experiment: SelectScreen biochemical kinase profiling, JAK3; conditions: JAK3, cell free; read-out: Enzyme inhibitory activity IC50
Method: (§1) The in vitro kinase inhibitory assays in the presence of compounds 323-1 and 323-2 were carried out according to the Z′-LYTE™ Screening and LanthaScreen Eu Kinase Binding Assays Experimental Procedures in Invitrogen (ThermoFisher Scientific, Waltham, Mass., USA). For the Z′-LYTE™ Screening profiling for FRAP1 (mTOR), JAK3, and LTK (TYK1), a mixture containing the test compounds in 100% DMSO, 2.4 μL Kinase buffer (50 mM HEPES pH 7.5, 0.01% BRIJ-35, 10 mM MgCl2, 1 mM EGTA), 5 μL 2× Peptide/Kinase Mixture, 2.5 μL 4×ATP Solution were added into black 384-well low volume NBS and bar-coded corning plate (Corning Cat. #4514) and shake the plate for 30 seconds. After incubation at RT for 60 min, 5 μL Development Reagent Solution was added into plate and shake the plate for 30 seconds, followed by Development Reaction incubation at RT for 60 min. Read on fluorescence plate reader and analyze the data. […]
(§2) Inhibition by compounds 323-1 and 323-2 of MAP2K4 (MEK4) and TGFBR1 (ALK5) was determined by […]. Inhibition by compounds 323-1 and 323-2 of FRAP1 (mTOR), JAK3, and LTK (TYK1) was determined by […] using the Adapta Universal Kinase Assay (Life Technologies). […]

TGFBR2 = TGFBR2 (Homo sapiens, UniProt P37173); experiment: SelectScreen kinase profiling, TGFBR2; format: biochemical; conditions: read-out: Enzyme inhibitory activity IC50
LTK (TYK1) = LTK (TYK1) (Homo sapiens, UniProt P29376); experiment: SelectScreen biochemical kinase profiling, LTK (TYK1); conditions: cell free, read-out: Enzyme inhibitory activity IC50
Method: as §1, §2

MAPK9 (JNK2) = MAPK9 (JNK2) (Homo sapiens, UniProt P45984); experiment: SelectScreen kinase profiling, MAPK9; format: biochemical; conditions: read-out: Enzyme inhibitory activity IC50
KDR (VEGFR2) = KDR (VEGFR2) (Homo sapiens, UniProt P35968); experiment: SelectScreen kinase profiling, KDR; format: biochemical; conditions: read-out: Enzyme inhibitory activity IC50
JAK2 = JAK2 (Homo sapiens, UniProt O60674); experiment: SelectScreen kinase profiling, JAK2; format: biochemical; conditions: read-out: Enzyme inhibitory activity IC50
MAPK10 (JNK3) = MAPK10 (JNK3) (Homo sapiens, UniProt P53779); experiment: SelectScreen kinase profiling, MAPK10; format: biochemical; conditions: read-out: Enzyme inhibitory activity IC50
FGFR1 = FGFR1 (Homo sapiens, UniProt P11362); experiment: SelectScreen kinase profiling, FGFR1; format: biochemical; conditions: read-out: Enzyme inhibitory activity IC50
PDGFRA (PDGFR alpha) = PDGFRA (PDGFR alpha) (Homo sapiens, UniProt P16234); experiment: SelectScreen kinase profiling, PDGFRA; format: biochemical; conditions: read-out: Enzyme inhibitory activity IC50
SRC N1 = SRC N1 (Homo sapiens, UniProt P12931); experiment: SelectScreen kinase profiling, SRC N1; format: biochemical; conditions: read-out: Enzyme inhibitory activity IC50
FGFR3 = FGFR3 (Homo sapiens, UniProt P22607); experiment: SelectScreen kinase profiling, FGFR3; format: biochemical; conditions: read-out: Enzyme inhibitory activity IC50
MAP2K4 (MEK4) = MAP2K4 (MEK4) (Homo sapiens, UniProt P45985); experiment: SelectScreen kinase profiling, MAP2K4 (MEK4); format: binding; conditions: cell free, read-out: Enzyme inhibitory activity IC50
Method: as §1, §2

ERBB2 (HER2) = ERBB2 (HER2) (Homo sapiens, UniProt P04626); experiment: SelectScreen kinase profiling, ERBB2; format: biochemical; conditions: read-out: Enzyme inhibitory activity IC50
PDGFRB (PDGFR beta) = PDGFRB (PDGFR beta) (Homo sapiens, UniProt P09619); experiment: SelectScreen kinase profiling, PDGFRB; format: biochemical; conditions: read-out: Enzyme inhibitory activity IC50
[1] = biological target: T1, Recombinant Human STAT3 protein (SH2 domain) (Homo sapiens, UniProt P40763); experiment: Fluorescence Polarization (FP) competition assay, STAT3 / GpYLPQTV-NH2 peptide; format: binding
T1 construct: purchased Abcam ab43618
Method: The FP assay was conducted as described by Zhao et al. (J Biol Chem. 2010; 285: 35855-65). The labeled phosphopeptide, 5-FLU-G(P-TYR)LPQTV-NH2 was synthesized by ProImmune (London, UK) with over 95% purity as probe. The Recombinant Human STAT3 protein was purchased from Abcam (ab43618). For saturation curves, various concentration of peptide probe (0-100 nM) and STAT3 protein ([…]) were incubated for 30 min at RT in the buffer (50 mm NaCl, 10 mm HEPES, 1 mm EDTA, 0.1% Nonidet P-40). To obtain the inhibitory effect, drugs (0-1000 μM) and 150 nM human STAT3 were incubated at 37° C. for 1 hour prior to co-incubation with 10 nM of labeled LPQTV peptide at RT for 30 min. […] The fluorescence polarization was then analyzed by the BioTek Synergy™ Neo2 Multi-Mode Microplate Reader (BioTek Instruments, Winooski, Vt., USA). Ki=IC50/(([L])/Kd)+1).
Strategies to target STAT3 SH2 have been pursued recently. These small molecule inhibitors are designed to bind to a site resident in the STAT3 SH2 domain by competing with the p-Tyr705.
As STAT3 may be recruited to gp130 within phosphotyrosine residues, the competitive FP assay was utilized to identify whether 323-1 and 323-2 target STAT3 SH2 domain.
The control was set as 1% DMSO. Data are representative of 2 independent experiments.

FGFR4 = FGFR4 (Homo sapiens, UniProt P22455); experiment: SelectScreen kinase profiling, FGFR4; format: biochemical; conditions: read-out: Enzyme inhibitory activity IC50
MAP2K6 (MKK6) = MAP2K6 (MKK6) (Homo sapiens, UniProt P52564); experiment: SelectScreen kinase profiling, MAP2K6; format: biochemical; conditions: read-out: Enzyme inhibitory activity IC50
AKT2 (PKB beta) = AKT2 (PKB beta) (Homo sapiens, UniProt P31751); experiment: SelectScreen kinase profiling, AKT2; format: biochemical; conditions: read-out: Enzyme inhibitory activity IC50
FRAP1 (mTOR) = FRAP1 (mTOR) (Homo sapiens, UniProt P42345); experiment: SelectScreen biochemical kinase profiling, FRAP1 (mTOR); conditions: cell free, read-out: Enzyme inhibitory activity IC50
Method: as §1, §2

[2] = 10 nM peptide, 150 nM human STAT3 (FIG. 20), read-out: Ki, disruption of binding of STAT3 to phosphotyrosine peptide GpYLPQTV
[3] = background (autofluorescence) subtracted (FIG. 33), read-out: Ki, protein-ligand interaction after background subtraction

T1 sequence (P40763 whole entry, the tested form may be a part): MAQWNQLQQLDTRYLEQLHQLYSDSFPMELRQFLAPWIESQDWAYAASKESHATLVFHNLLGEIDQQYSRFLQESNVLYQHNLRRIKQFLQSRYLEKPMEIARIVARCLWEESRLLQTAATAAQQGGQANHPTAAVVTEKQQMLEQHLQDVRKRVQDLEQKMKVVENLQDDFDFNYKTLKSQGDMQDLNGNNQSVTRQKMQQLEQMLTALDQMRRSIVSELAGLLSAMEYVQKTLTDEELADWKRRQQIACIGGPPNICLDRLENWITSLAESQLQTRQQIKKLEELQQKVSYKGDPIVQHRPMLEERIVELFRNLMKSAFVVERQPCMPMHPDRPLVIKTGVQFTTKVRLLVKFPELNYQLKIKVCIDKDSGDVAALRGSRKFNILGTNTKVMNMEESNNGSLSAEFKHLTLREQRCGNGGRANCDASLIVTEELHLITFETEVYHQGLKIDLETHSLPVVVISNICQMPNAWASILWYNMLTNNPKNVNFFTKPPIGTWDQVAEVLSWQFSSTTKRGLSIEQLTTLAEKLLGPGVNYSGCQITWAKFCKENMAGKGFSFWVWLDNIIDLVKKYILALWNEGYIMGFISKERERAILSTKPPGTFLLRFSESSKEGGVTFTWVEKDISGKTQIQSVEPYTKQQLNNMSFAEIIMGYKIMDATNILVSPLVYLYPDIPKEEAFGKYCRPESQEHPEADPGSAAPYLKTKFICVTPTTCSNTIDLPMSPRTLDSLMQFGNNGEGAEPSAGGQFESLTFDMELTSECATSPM
KDR (VEGFR2), sequence (P35968 20-1356): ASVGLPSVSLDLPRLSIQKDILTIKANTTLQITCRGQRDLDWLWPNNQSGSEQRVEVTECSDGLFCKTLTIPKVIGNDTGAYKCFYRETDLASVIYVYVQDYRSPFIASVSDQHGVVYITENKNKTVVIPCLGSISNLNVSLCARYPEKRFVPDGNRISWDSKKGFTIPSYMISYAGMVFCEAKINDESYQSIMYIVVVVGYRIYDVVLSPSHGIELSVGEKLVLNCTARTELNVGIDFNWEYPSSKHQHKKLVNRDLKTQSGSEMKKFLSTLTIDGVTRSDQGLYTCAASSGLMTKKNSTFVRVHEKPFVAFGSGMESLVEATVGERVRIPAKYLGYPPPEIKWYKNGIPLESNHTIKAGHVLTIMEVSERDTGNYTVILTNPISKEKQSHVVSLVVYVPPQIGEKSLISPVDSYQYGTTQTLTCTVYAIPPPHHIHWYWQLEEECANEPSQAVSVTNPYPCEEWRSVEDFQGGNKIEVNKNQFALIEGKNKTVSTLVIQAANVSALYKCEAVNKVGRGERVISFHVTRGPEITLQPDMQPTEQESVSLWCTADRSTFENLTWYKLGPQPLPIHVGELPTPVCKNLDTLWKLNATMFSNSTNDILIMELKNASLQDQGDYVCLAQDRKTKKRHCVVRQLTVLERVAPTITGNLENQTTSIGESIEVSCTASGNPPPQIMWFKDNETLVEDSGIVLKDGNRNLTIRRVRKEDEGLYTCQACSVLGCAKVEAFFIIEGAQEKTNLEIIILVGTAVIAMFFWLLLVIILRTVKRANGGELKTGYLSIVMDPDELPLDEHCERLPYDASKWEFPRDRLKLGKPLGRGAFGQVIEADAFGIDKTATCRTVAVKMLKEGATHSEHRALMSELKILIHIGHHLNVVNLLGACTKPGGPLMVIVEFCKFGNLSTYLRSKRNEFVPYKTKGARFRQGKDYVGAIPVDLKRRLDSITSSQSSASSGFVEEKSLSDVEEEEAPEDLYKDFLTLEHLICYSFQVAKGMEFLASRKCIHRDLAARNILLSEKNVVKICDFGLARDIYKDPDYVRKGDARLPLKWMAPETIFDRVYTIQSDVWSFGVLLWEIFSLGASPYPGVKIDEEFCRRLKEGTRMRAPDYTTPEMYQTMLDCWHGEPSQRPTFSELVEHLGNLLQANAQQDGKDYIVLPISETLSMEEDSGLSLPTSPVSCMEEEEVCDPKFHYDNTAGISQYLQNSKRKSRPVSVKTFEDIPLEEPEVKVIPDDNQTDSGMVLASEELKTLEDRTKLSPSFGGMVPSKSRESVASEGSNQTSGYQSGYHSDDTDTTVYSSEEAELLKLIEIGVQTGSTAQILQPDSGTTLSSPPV
FGFR4, sequence (P22455 22-802): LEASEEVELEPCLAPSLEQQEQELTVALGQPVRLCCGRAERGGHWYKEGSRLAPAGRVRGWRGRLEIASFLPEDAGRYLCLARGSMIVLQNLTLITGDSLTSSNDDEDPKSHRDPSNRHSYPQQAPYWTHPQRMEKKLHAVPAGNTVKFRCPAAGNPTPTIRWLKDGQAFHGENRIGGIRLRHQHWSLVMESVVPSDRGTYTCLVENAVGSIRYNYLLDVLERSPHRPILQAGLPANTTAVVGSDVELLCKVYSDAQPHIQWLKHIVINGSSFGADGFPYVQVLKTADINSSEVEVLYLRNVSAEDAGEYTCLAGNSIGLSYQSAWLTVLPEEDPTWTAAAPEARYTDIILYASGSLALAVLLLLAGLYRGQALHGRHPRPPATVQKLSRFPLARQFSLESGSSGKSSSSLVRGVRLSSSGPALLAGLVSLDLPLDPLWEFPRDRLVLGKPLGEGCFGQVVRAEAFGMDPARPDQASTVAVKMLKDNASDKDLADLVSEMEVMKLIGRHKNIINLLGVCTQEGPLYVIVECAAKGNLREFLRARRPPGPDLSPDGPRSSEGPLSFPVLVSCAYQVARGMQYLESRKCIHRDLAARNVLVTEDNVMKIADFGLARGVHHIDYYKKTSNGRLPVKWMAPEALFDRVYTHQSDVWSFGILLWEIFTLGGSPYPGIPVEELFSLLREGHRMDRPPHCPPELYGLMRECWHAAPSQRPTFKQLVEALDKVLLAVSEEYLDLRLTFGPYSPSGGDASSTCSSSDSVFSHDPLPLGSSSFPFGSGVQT
MAPK9 (JNK2), sequence (P45984 whole entry): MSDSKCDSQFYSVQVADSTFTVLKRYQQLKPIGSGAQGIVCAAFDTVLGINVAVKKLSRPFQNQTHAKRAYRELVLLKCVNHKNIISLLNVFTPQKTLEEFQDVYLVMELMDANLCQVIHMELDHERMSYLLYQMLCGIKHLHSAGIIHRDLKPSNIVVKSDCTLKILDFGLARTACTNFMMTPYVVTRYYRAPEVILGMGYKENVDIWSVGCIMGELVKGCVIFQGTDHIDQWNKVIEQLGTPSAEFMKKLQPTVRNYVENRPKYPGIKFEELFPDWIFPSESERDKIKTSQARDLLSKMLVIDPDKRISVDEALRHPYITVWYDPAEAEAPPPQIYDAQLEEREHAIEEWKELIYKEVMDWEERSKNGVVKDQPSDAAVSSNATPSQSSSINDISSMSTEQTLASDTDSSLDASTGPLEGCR
MAP2K6 (MKK6), sequence (P52564 whole entry): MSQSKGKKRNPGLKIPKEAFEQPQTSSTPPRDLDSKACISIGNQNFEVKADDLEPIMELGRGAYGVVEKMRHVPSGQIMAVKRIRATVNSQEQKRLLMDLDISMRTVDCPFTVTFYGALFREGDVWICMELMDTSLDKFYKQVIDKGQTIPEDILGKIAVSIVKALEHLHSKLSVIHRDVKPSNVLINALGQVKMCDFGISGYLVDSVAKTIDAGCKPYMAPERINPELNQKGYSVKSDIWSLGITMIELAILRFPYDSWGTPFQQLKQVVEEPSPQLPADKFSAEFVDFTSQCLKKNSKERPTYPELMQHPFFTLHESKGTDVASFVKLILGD
ERBB2 (HER2), sequence (P04626 23-1255): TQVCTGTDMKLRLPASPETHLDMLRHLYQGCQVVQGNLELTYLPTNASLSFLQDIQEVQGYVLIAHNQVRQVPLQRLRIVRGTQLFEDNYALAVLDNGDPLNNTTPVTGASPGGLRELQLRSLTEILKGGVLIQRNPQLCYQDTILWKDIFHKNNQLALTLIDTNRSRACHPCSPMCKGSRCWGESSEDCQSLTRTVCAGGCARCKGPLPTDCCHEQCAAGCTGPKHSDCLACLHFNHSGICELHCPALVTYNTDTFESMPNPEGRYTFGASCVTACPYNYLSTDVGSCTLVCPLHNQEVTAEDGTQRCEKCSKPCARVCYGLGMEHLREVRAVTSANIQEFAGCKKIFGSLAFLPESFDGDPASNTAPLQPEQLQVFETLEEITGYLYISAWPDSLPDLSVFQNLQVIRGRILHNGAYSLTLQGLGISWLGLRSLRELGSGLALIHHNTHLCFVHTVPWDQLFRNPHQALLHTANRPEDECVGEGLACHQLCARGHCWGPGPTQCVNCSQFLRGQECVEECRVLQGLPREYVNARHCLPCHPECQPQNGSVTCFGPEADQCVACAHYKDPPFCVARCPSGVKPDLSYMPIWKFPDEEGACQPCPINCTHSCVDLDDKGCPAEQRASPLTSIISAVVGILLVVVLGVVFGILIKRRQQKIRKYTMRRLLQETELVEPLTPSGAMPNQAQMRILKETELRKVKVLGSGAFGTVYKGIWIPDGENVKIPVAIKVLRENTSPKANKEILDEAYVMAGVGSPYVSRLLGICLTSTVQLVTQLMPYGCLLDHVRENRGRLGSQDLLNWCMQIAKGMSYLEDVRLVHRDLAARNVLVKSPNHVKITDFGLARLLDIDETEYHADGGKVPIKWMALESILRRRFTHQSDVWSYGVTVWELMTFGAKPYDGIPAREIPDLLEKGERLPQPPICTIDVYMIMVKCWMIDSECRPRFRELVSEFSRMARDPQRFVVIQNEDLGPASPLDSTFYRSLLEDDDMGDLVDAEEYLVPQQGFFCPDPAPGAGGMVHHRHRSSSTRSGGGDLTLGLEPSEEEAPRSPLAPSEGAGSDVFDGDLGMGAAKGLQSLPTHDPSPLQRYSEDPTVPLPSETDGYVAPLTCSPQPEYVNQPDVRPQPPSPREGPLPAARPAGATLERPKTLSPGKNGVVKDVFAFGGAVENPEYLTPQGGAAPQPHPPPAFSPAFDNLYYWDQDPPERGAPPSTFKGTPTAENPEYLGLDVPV

Row | Compound | pIC50 (ERBB4 (HER4)) | pIC50 (JAK3) | pIC50 (TGFBR2) | pIC50 (LTK (TYK1)) | pIC50 (MAPK9 (JNK2)) | pIC50 (KDR (VEGFR2)) | pIC50 (JAK2) | pIC50 (MAPK10 (JNK3)) | pIC50 (FGFR1) | pIC50 (PDGFRA (PDGFR alpha)) | pIC50 (SRC N1) | pIC50 (FGFR3) | pIC50 (MAP2K4 (MEK4)) | pIC50 (ERBB2 (HER2)) | pIC50 (PDGFRB (PDGFR beta)) | pKi [1, 2] | pKi [1, 3] | pIC50 (FGFR4) | pIC50 (MAP2K6 (MKK6)) | pIC50 (AKT2 (PKB beta)) | other results
1 | C[C@@H]1CCC(c2cc3c4c(cncc4c2)[C@H](C)C3)=C1C=O [323-1, (15R,2R)-Delavatine A] | < 4.70 | 5.37 | < 4.70 | 5.21 | < 4.70 | < 4.70 | < 4.70 | < 4.70 | < 4.70 | < 4.70 | < 4.70 | < 4.70 | 5.70 | < 4.70 | < 4.70 | ~4.03 | 4.03 | < 4.70 | < 4.70 | < 4.70 | pIC50 (FRAP1 (mTOR)): 5.21
2 | C[C@@H]1CCC(c2cc3c4c(cncc4c2)[C@@H](C)C3)=C1C=O [323-2, (15S,2R)-Delavatine A] | < 4.70 | 4.94 | < 4.70 | 5.28 | < 4.70 | < 4.70 | < 4.70 | < 4.70 | < 4.70 | < 4.70 | < 4.70 | < 4.70 | 5.91 | < 4.70 | < 4.70 | ~4.12 | 4.12 | < 4.70 | < 4.70 | < 4.70 | Potency to disrupt STAT3/GpYLPQTV relative to S3I-201 ([1]; higher than S3I-201): around 5 fold; pIC50 (FRAP1 (mTOR)): 5.12
